Data set [1] deals with T1, α-Glucosidase (Saccharomyces cerevisiae, UniProt P53341).
T1 construct: purchased Sigma Aldrich G0660-750UN
Briefly: biochemical. Conditions: for α-glucosidase inhibitory activity (in words): in vitro; for IC50: mean ± SD (n = 3), read-out: α-Glucosidase inhibitory activity IC50 Value. The class given is biochemical. The method in brief: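 Absorbance at 405 nm of released p-nitrophenol gave % inhibition, corrected for blank and sample-blank wells, and IC50 values, all in triplicate. Reactions combined yeast enzyme, PNPG and test compound in pH 6.8 phosphate buffer (100 mM) at 37 °C for 20 min following a 10-min preincubation, ended with Na2CO3.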

Data set [2] in a line: Oral toxicity to mice (Lorke's method). Conditions: both sexes, mouse, in vivo, Kunming mice, observed 14 days. The procedure: With reference to Lorke’s method, kunming mice were used as targets to estimate the oral toxicity of each compound to mice. We select compounds 11, 17, 25, 28, and 35 at concentrations of 10, 100, and 1000 mg/kg to test their oral toxicity in the first phase, and 1600, 2900, and 5000 mg/kg at the second phase.
Experiments were performed on Kunming mice (male and female half, bw range, 25–30 g). Mice were housed in a climate and light controlled room with a 12 h light/dark cycle. Twelve hours before experiments, food was withheld, but animals had free access to drinking water. The compounds were suspended in vehicle (Tween-80, 0.2% in saline). The concentrations were adjusted to orally administrate 0.2 ml/10 g of bw. Mice were treated in two phases. In the first, intragastric doses of 10, 100 and 1000 mg/kg of bw of compounds were administered. On the second, the doses were adjusted to 1600, 2900, and 5000 mg/kg of bw of compounds. In both phases, mice were observed daily in a period of 14 days for mortality, toxic effects and/or changes in behavioural pattern. At the end of the experiments, the mice were sacrificed in a CO2 chamber.

Data set [3] deals with AGEs formation. The experiment in a line: In vitro inhibitory activity of AGEs formation (bovine serum albumin/glucose). The class given is biochemical. Particulars: mean ± SD (n = 3). The procedure, abridged:
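Bovine serum albumin (10 mg/mL) with 0.2 M glucose in 50 mM PBS, pH 7.4, plus 0.02% sodium azide, was mixed with compound solutions (0.5–1000 μg/mL in DMSO) and held 14 d at 37 °C. AGE fluorescence was read at ex 350/em 420 nm in triplicate. Inhibition was corrected with glucose-free blanks, and IC50 calculated.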

A short description of data set [4]: hydroxyl radical scavenging. Particulars: mean ± SD (n = 3), read-out: OH IC50 Value. The method in brief: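 Fenton system of H2O2 (0.03%), FeSO4 (2 mmol/L) and salicylic acid (10 mmol/L) with compound solutions (0.4–2.0 mg/mL), incubated 30 min at 37 °C. Absorbance read at 510 nm. % OH scavenging = [A0−(A1−A2)]/A0×100, with A2 a sample blank using ethanol in place of salicylic acid.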

Experimental findings from article PMC6211316, “Synthesis and biological evaluation of 3-arylcoumarin derivatives as potential anti-diabetic agents” (Journal of Enzyme Inhibition and Medicinal Chemistry, 2018) are described below.

T1 sequence (P53341 whole entry): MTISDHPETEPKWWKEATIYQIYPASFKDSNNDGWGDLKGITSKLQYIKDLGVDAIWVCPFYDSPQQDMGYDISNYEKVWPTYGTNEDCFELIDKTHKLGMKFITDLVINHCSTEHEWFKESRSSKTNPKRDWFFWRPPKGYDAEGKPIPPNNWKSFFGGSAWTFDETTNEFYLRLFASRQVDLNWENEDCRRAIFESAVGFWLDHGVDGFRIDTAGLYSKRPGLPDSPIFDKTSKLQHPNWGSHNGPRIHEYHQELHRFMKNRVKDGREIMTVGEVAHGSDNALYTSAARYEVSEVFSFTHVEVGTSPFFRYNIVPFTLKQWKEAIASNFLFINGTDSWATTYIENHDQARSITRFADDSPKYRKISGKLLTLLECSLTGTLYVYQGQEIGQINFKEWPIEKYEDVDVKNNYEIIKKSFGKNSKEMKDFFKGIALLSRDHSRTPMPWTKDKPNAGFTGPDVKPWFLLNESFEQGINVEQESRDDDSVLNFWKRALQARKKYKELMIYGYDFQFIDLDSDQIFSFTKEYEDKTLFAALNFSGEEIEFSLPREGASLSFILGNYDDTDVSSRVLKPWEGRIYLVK

The term IC50 denotes the point on the concentration scale where inhibition reaches its midpoint. Usually LD50 stands for the dose expected to kill half of the subjects tested. As to `Cc1ccccc1-c1cc2ccc(O)cc2oc1=O` [Compound 11, 7-Hydroxy-3-(2-methylphenyl)-coumarin], the “α-glucosidase inhibitory activity (in words)” value in data set [1] is given as “moderate to excellent inhibitory activity”. Also, the IC50 in data set [1] was 16.4 ± 1.23 µM; in data set [3], greater than 1000 µM; in data set [4], greater than 1000 µM. Besides, the LD50 at 14 days in data set [2] is greater than 5000 mg/kg.
As to `O=c1oc2ccc(O)cc2cc1-c1ccc(O)cc1` [Compound 17, 6-Hydroxy-3-(4-hydroxyphenyl)-coumarin], the “α-glucosidase inhibitory activity (in words)” value in data set [1] is “moderate to excellent inhibitory activity”. The IC50 was 11.5 ± 1.3 µM in data set [1], 24.68 ± 0.12 µM in data set [3] and greater than 1000 µM in data set [4]. In data set [2], this compound gave an LD50 at 14 days greater than 5000 mg/kg.
The matching figures for `Cc1ccc(-c2cc3c(O)cc(O)cc3oc2=O)cc1` [Compound 25, 5,7-Dihydroxy-3-(4-methylphenyl)-coumarin]: “moderate to excellent inhibitory activity”, 11.5 ± 0.37 µM, 45.8 ± 1.27 µM, greater than 1000 µM and greater than 5000 mg/kg.
Take `COc1ccc(-c2cc3c(O)cc(O)cc3oc2=O)cc1` [Compound 35, 5,7-Dihydroxy-3-(4-methoxyphenyl)-coumarin]: the “α-glucosidase inhibitory activity (in words)” value in data set [1] is listed as “moderate to excellent inhibitory activity”. In addition, the IC50 in data set [1] was 10.8 ± 0.63 µM; in data set [3], 5.21 ± 0.07 µM; in data set [4] it was 270 ± 41.6 µM. In addition, in data set [2], the 50% lethal dose (LD50) at 14 days was greater than 5000 mg/kg.
